Data on 4 compounds can be found in US12329755B2, “Bromodomain inhibitors to target therapy-resistant cancer” (University of Tennessee Research Foundation, priority 2019, dated 2025).

Entries after “also recorded” stand apart in the source; their conditions may differ.

One assay has as its system X10 BTICs. Particulars: X10 BTICs; cited from earlier work.
The subject of another assay is X16 BTICs. The settings on record: X16 BTICs; cited from earlier work.
The subject of assay [1] is LN229 TMZ-resistant glioma cell line. Nature of the assay: IncuCyte live cell imaging proliferation assay. The class given is cell-based. The settings on record: for sensitization to TMZ: BRI 1 μM combined with 100 μM TMZ; for effect on cell growth: BRI alone (1 μM). On the procedure:
FIG. 2A is a graph showing relative growth of temozolomide (TMZ)-resistant glioma cells (LN229 cells) alone (control); after treatment with 100 micromolar (μM) TMZ; after treatment with a Brahma-related gene-1 bromodomain inhibitor (BRI), PFI-3 (1 μM); or after treatment with both TMZ and PFI-3 (combined).
FIG. 2B is a graph showing relative growth of temozolomide (TMZ)-resistant glioma cells (LN229 cells) alone (control); after treatment with 100 micromolar (μM) TMZ; after treatment with a Brahma-related gene-1 bromodomain inhibitor (BRI), IV-073 (1 μM); or after treatment with both TMZ and IV-073 (combined).
FIG. 2C is a graph showing relative growth of LN229 Temozolomide (TMZ)-resistant glioma cells alone (control); after treatment with 100 micromolar (μM) TMZ; after treatment with a Brahma-related gene-1 bromodomain inhibitor (BRI), IV-077 (1 μM); or after treatment with both TMZ and IV-077 (combined).
FIG. 2D is a graph showing relative growth of LN229 Temozolomide (TMZ)-resistant glioma cells alone (control); after treatment with 100 micromolar (μM) TMZ; after treatment with a Brahma-related gene-1 bromodomain inhibitor (BRI), IV-085 (1 μM); or after treatment with both TMZ and IV-085 (combined).
To determine whether PFI-3 (also called YH-IV-081) and its analogs (referred to herein as “PAs”) enhanced TMZ sensitivity IncuCyte live cell imaging proliferation assays (high throughput system) were performed with the LN229 TMZ-resistant glioma cell line.

The subject of assay [2] is GBM cells. Nature of the assay: overall statements on GBM cell death and sensitization to TMZ. Particulars: for sensitizing activity to TMZ compared to PFI-3: in vitro and in an animal model of GBM; for GBM cell death: used alone. The class given is cell-based. The text has this:
The syntheses of two exemplary PA BRIs, referred to herein as YH-IV-073 (or IV-073), and YH-IV-077 (or IV-077), as well as of PFI-3 (also referred to herein as YH-IV-081), are shown in Scheme 2, below. As shown in Scheme 2, commercially available tert-butyloxycarbonyl (BOC)-protected amine 1 is contacted with 2-bromopyridine (2) to form intermediate 3. The protecting group can be removed (e.g., via hydrolysis) to give the corresponding amine 4. Compound 4 can be coupled with a carboxylic acid (5, 6, or 7) to afford target YH-IV-073, YH-IV-077 and YH-IV-081, respectively. […] These analogs will provide greater insight into the importance of substitution of the A ring.
The synthetic route shown in Scheme 3, below, was used to synthesize new analogs with different substituents in the 2-position of the A-ring, such as YH-IV-085. As shown in Scheme 3, a commercially available 1-phenylprop-2-yn-1-one (e.g., 8 or 9) can be reacted with BOC-protected amine compound 1 to afford a BOC-protected intermediate (e.g., 10 or 11), which can be hydrolyzed to provide corresponding deprotected intermediate (12 or 13). The intermediates can be coupled with the 2-bromopyridine (2) to yield target compounds (e.g., 14 or YH-IV-085), respectively. YH-IV-085 is believed to be the first PFI-3 analog prepared without a 2-hydroxy moiety in the A-ring.

In the next assay the test system is X16 BTIC. Nature of the assay: X16 BTIC mouse flank xenografts. The settings on record: combined with TMZ; for tumor growth: 2 weeks post-treatment, compared with PFI-3 and TMZ, BRI 0.5 μg/mouse, TMZ 0.25 mg/mouse IP alternate days. The class given is in vivo, mice. As for the experimental part: FIG. 1F is a graph showing the effect of temozolomide (TMZ) on the tumorigenicity of control (black portion of bars) and Brahma-related gene-1-knock-down (BRG1-KD) (grey portion of bars) brain-tumor initiating cells (BTICs) after injection of 10^6 tumor cells into the flanks of immunodeficient mice. Live animal imaging preformed at weekly intervals. After confirming tumor initiation by live animal imaging, mice were treated with TMZ by interperitoneal (IP) injection (10 milligrams per kilogram (mg/kg) on alternate days). The reduction in tumor volume was calculated at 1 week (left) and 2 weeks (right) post-treatment. *p≤0.05.
FIG. 5 is a graph showing the effect of Brahma-related gene-1 bromodomain inhibitors (BRIs), PFI-3 and the PFI-3 analogs (PAs) IV-073, IV-077, and IV-085, on the anticancer activity of temozolomide (TMZ) on brain-tumor initiating-cell (BTIC) tumor growth. BTICs (10^6 cells) from X16 glioblastoma were injected into the flanks of immunodeficient mice. After confirming tumor initiation by live animal imaging, mice were treated with PFI-3 or a PA (0.5 microgram per mouse (μg/mouse)) and TMZ (0.25 mg/mouse) by intrarperitoneal (IP) injection on alternate days. The reduction in tumor volume was calculated at 2 weeks post-treatment.
BRG1 loss sensitizes BTICs to TMZ in vitro and in vivo: Although the alkylating agent TMZ is front-line chemotherapy in the treatment of GBM, a significant clinical problem is intrinsic or adaptive resistance to TMZ.^63 To evaluate TMZ sensitivity, GBM6 or X16 BTICs were treated with 300 μM or 500 μM TMZ, and cell proliferation was determined. […] Since BRG1 has been implicated in DNA double-strand break repair,^65-67 it was hypothesized that BRG1 loss in BTICs would sensitize BTICs to TMZ. […] To determine whether BRG1-KD sensitized BTICs to TMZ in vivo, animal studies were conducted with control (scrambled shRNA) and BRG1-KD X16 BTICs injected into the flanks of NSG mice. After tumor initiation was confirmed by live animal imaging, mice were treated with TMZ. […] Thus, despite X16 BRG1-KD BTICs producing larger tumors, the tumors were sensitized to TMZ therapy.
In contrast, all mice with single drug treatment had to be euthanized because the tumors had reached […] by 3 weeks post-treatment.

Assay [3] concerns the target T1, GFP-tagged bromodomain of BRG1 (GFP-BRG1 BRD) (Homo sapiens, UniProt P51532).
T1 construct: a fluorescently tagged bromodomain of BRG1 expressed in MT330 GBM cells; expressed in transfected cells; host or cells: MT330 GBM cells
Nature of the assay: nuclear localization of fluorescently tagged BRG1 bromodomain in MT330 GBM cells. Particulars: PFI-3 10 or 30 μM; IV-073 5, 10 or 30 μM; compared to DMSO. The class given is cell-based. An excerpt: FIG. 4 is a series of fluorescence microscopy images showing the effects of Brahma-related gene-1 bromodomain inhibitors (BRIs) on the nuclear localization of a green fluorescent protein (GFP)-tagged bromodomain of Brahma-related gene-1 (GFP-BRG1 BRD).
The effects of PFI-3 and its analogs on the nuclear localization of a fluorescently tagged bromodomain of BRG1 expressed in MT330 GBM cells was studied. In the control samples, the fluorescent bromodomain is localized to the nucleus. However, an inhibitor displaces it from the nucleus and the fluorescence signal markedly decreases because it is degraded in the cytoplasm.

The target of the next assay is T2, bromodomain of BRG1 (Homo sapiens, UniProt P51532).
T2 construct: The assay involved the use of the bromodomain of BRG1 in MT330 GBM cells; expressed in transfected cells; host or cells: MT330 GBM cells
Nature of the assay: thermal shift assay of the BRG1 bromodomain in MT330 GBM cells. The class given is binding. The settings on record: 44.5° C. to 55.6° C.; PFI-3 30 μM, IV-073 20 μM, two hours; compared to DMSO. On the procedure:
FIG. 3 is a series of immunoblot images showing the effects of Brahma-related gene-1 bromodomain inhibitors (BRIs) on the stability of the bromodomain of Brahma-related gene-1 in a thermal assay shift of the bromodomain in glioblastoma cells over a temperature range from 44.5 degrees Celsius (° C.) to 55.6° C. Cells were treated with (middle) PFI-3 (30 micromolar (μM)) for two hours or (right), a PFI-3 analog of the presently disclosed subject matter (IV-073) (20 μM) for two hours. For comparison, control cells treated with dimethyl sulfoxide (DMSO) are shown at […].
To further study the activity of the presently disclosed PFI-3 analogs, a thermal shift assay was employed. The assay involved the use of the bromodomain of BRG1 in MT330 GBM cells at temperatures ranging from 44.5° C. to 55.6° C.

Assay [4] deals with GBM cells. Nature of the assay: survival of mice after intracranial injection of GBM cells. The class given is in vivo. The settings on record: combination with TMZ, intraperitoneal, 10 mg/kg body weight. On the procedure: FIG. 6 is a graph showing the survival curves (percent survival versus days after treatment) of mice after intracranial injection of glioblastoma (GBM) cells and intraperitoneal injection of temozolomide (TMZ) or combinations of TMZ and a Brahma-related gene-1 bromodomain inhibitors (BRIs): PFI-3 or one of the presently disclosed PFI-3 analogs (PAs) IV-073 or IV-085. Five mice per group were treated with TMZ with or without the BRI (10 milligrams per kilogram (mg/kg) body weight.
TMZ with or without a BRI was also tested in mice after intercranial injection of GBM cells.

T1 sequence (P51532 1453-1564 limits assumed): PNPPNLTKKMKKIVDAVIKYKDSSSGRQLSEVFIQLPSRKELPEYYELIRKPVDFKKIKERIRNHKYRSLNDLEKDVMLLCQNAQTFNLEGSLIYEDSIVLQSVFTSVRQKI
T2 sequence (P51532 1453-1564 limits assumed): as above

Consider `O=NN(CCCl)C(=O)NCCCl` [Carmustine], for which the Carmustine sensitivity result with X10 BTICs and in the assay on X16 BTICs was “highly resistant” throughout.

On to `O=C(/C=C/N1C[C@H]2C[C@@H]1CN2c1ccccn1)c1ccc(Cl)cc1O` [IV-077, (E)-1-(4-chloro-2-hydroxyphenyl)-3-((1R,4R)-5-(pyridin-2-yl)-2,5-diazabicyclo[2.2.1]heptan-2-yl)prop-2-en-1-one], for which, in assay [1], the “sensitization to TMZ” value is recorded as “potently sensitized” and the “effect on cell growth” value was “relatively minor effects on cell growth”. For the same compound, in the assay on GBM cells [2], the “sensitizing activity to TMZ compared to PFI-3” value is on record as “significantly improved sensitizing activity” and the GBM cell death entry was “do not cause GBM cell death”.

Consider `O=C(/C=C/N1C[C@H]2C[C@@H]1CN2c1ccccn1)c1cc(F)ccc1O` [IV-073, (E)-1-(5-fluoro-2-hydroxyphenyl)-3-((1R,4R)-5-(pyridin-2-yl)-2,5-diazabicyclo[2.2.1]heptan-2-yl)prop-2-en-1-one], for which, in the assay with X16 BTIC, the tumor growth entry is listed as “marked effect on tumor growth” and the “tumors after treatment for 8 weeks” value is “only small tumors were detectable”. For the same compound, the “displacement of the BRG1 bromodomain from the nucleus” value in assay [3] is on record as “more effective in displacing the bromodomain”. For the same compound, the “stabilization of the BRG1 bromodomain” value at bromodomain of BRG1 was “more effective in stabilizing the bromodomain”. Further, in assay [1], the “sensitization to TMZ” value was “potently sensitized” and the “effect on cell growth” value was “relatively minor effects on cell growth”. Further, in the assay with GBM cells [2] (listed as YH-IV-073), the “sensitizing activity to TMZ compared to PFI-3” value is recorded as “significantly improved sensitizing activity; also recorded: better efficacy”. Moreover, the GBM cell death entry with GBM cells [2] is reported as “do not cause GBM cell death”.

Take `O=C(/C=C/N1C[C@H]2C[C@@H]1CN2c1ccccn1)c1ccccc1Cl` [IV-085, (E)-1-(2-chlorophenyl)-3-((1R,4R)-5-(pyridin-2-yl)-2,5-diazabicyclo [2.2.1]heptan-2-yl) prop-2-en-1-one]: in the assay with X16 BTIC, the tumor growth entry is “marked effect on tumor growth” and the “tumors after treatment for 8 weeks” value is reported as “only small tumors were detectable”. In addition, the animal survival entry in the assay with GBM cells [4] is on record as “greatest effect”. Moreover, in assay [1], the “sensitization to TMZ” value is given as “potently sensitized” and the “effect on cell growth” value is “relatively minor effects on cell growth”. For the same compound, in the assay on GBM cells [2], the “sensitizing activity to TMZ compared to PFI-3” value is listed as “significantly improved sensitizing activity” and the GBM cell death entry is “do not cause GBM cell death”.
